Measured values reported in patent US20240207261A1, “METHODS FOR TREATING SMALL CELL LUNG CANCER AND OTHER NEUR[…]” (BOARD OF REGENTS, THE UNIVERSITY OF TEXAS SYSTEM, priority 2021, published 2024).
pIC50: −log10 of the molar value. Where “and” joins values, the source holds several entries; their conditions need not be identical. Identical values can stand only once. Like-named read-outs stand apart in the source and are kept apart here.

Key:
[1] = system: cGAS, phospho STING, PD-L1 in SCLC cells; experiment: Western blot of cGAS-STING pathway and PD-L1; format: cell-based, human; conditions: 24 and 48h
Experimental: (§1) Protein lysate were isolated from SCLC cells treated with 0.9 nM lurbinectedin or DMSO for 24 and 48h. Nitrocellulose membranes were incubated with primary antibodies (1:1000) for Human SLFN11 (Santa Cruz Biotechnology), phospho-(S345) CHK1 Cell Signaling Technologies (CST), phospho-(S4/S8) RPA32 (Bethyl laboratories), phospho-(S139) TH2AX (CST), cleaved caspase-3 (CST), phospho-(S366) STING (SAB Biotech), cGAS (CST), PD-L1(CST), GAPDH (Santa Cruz Biotechnology) and Vinculin (Sigma-Aldrich) overnight. Secondary anti-goat, anti-mouse (Santa Cruz Biotechnology) and anti-rabbit HRP linked antibodies (CST) were used and detected using the Chemidoc imaging system, image captured with Image Studio Version 3.1 software (BioRad).

[2] = system: metastatic SCLC; conditions: 37 of 102 patients; 95% CI 26.2-45.2; cited from earlier work
[3] = system: human SCLC cell lines; experiment: Cell proliferation assay (Cell Titer Glo), panel of 21 human SCLC cell lines; format: cell-based; conditions: for pIC50: 21 human SCLC cell lines
Experimental: Human SCLC cell lines (21 cell lines) were purchased from ATCC. Cell lines were tested and authenticated by short tandem repeat profiling (DNA fingerprinting) and not cultured for greater than 6-months and were routinely tested for Mycoplasma contamination. Cell lines were cultured in either RPMI or HITES medium with 10% fetal bovine serum and 1% pen-strep, at 37° C. in a humidified chamber with 5% C02.
Cells were seeded in 96-well plates at 2,000 cells per well in triplicate for each cell line. After 24 hours, the cells in each well were treated with a lurbinectedin or with vehicle control. Four days later, proliferation was assayed by Cell Titer Glo (Promega, Fitchburg, WI). For single drug treatments, median inhibitory concentration (IC50) values were estimated by the Drexplorer software using date from duplicate experiments (14). For drug combinations, the area under the curve (AUC) of the observed (or experimental) effect of the combination was compared to the predicted additive effect. Data was subsequently presented as a ratio of the experimental effect relative to the predicted additive effect based on the Bliss Independence model, as previously reported (15). Using 10% above or below the predicted additive effect as a cut-off, the inventors then assigned the following groups: Observed/predicted<−0.1=greater than additive; […]; Observed/predicted <0.1 and >−0.1=additive.
Differences in IC50 values between subgroups were tested using ANOVA. Differences between SLFN11 high and low groups, defined using the bi-modality index (16), were tested using an un-paired t-test. Spearman rank correlation was used to assess the association between IC50 values and RPPA protein markers, The Benjamini & Hochberg (1995) method (17) was used to control false discovery rate (FDR). RPPA generates a quantitative measurement of expression of over 200 total and phosphorylated proteins, these values can be correlated to other variables such as IC50 values, and be compared between biomarker defined groups using standard statistical techniques. All analyses were performed using the R software.

[4] = system: pChK1, pRPA32, TH2AX in SCLC cell lines; experiment: Western blot of DNA damage markers (Example 1); format: cell-based; conditions: 1 nM for 24 or 48 hours, sensitive cell lines
Experimental: (§2) A 12 SCLC cell line panel representing SCLC-A, N, P and I subtypes, developed at MD Anderson Cancer Center, was screened against lurbinectedin in 96 hr proliferation assays (FIG. 2). Western Blotting: Three SCLC cell lines were treated with 1 nM of lurbinectedin for 24 and 48h and then subjected for protein isolation and Western blotting for pChK1, pRPA32, TH2AX.

[5] = system: phospho CHK1(S345), phospho RPA32(S4/S8), phospho TH2AX in SCLC cells; experiment: Western blot of replication stress and DNA damage markers (Example 2); format: cell-based, human; conditions: 0.9 nM, 24 and 48h, versus DMSO, all four subtypes
Experimental: as §1
Based on its mechanism of action, the inventors predicted that lurbinectedin would lead to increased replication stress and DNA damage in SCLC models. To test this, SCLC cells from all four subtypes were treated with lurbinectedin (0.9 nM/L) for 24 and 48h and markers of DNA damage and replication stress were assayed by Western blot.

[6] = system: DMS79 xenografts; experiment: Flank xenograft efficacy study, SLFN11 high; format: in vivo, mouse; conditions: 0.1 mg/kg i.v. once per week
Experimental: (§3) For the […] mouse model, 6-week-old female athymic nude mice (Envigo) were used. Animals were maintained in accordance with the Institutional Animal Care and Use Committee (IACUC) of The University of Texas MD Anderson Cancer Center and the NIH Guidelines for the Care and Use of Laboratory Animals. Experiments were performed under protocol: 00001191-RN03.
(§4) High SLFN11 protein expressing SCLC cell line DMS79 and low SLFN11 protein expressing cell line H865 were used for generation of xenografts. For subcutaneous injections, 1×10^6 SCLC cells were injected into one flank of each mouse with PBS: Matrigel (1:1, BD Biosciences). At an average tumor volume of 100 mm^3, mice were randomly allocated to three groups (n=5). Mice received either Vehicle (0.9% saline), lurbinectedin (0.1 mg/kg i.v. once per week), or cisplatin (6 mg/kg i.p. once per week). Tumor volumes were measured every other day using digital calipers.
(§5) Differences in IC50 values between subgroups were tested using ANOVA. Differences between SLFN11 high and low groups, defined using the bi-modality index were tested using an un-paired t-test. Spearman rank correlation was used to assess the association between IC50 values and RPPA protein markers, The Benjamini & Hochberg (1995) method was used to control false discovery rate (FDR). […]

[7] = system: SLFN11; experiment: Western blot of SLFN11 expression after treatment; format: cell-based, human
Experimental: as §1

[8] = system: SCLC cell lines; experiment: 96 hr proliferation assay, SCLC cell line panel (Example 1); format: cell-based, human and mouse; conditions: for pIC50: 12 human-derived and 3 mouse model-derived SCLC cell lines
Experimental: In this preclinical study, the inventors investigated the therapeutic efficacy of lurbinectedin in large number of profiled SCLC cell lines representing the four SCLC subtypes (A, N, P and I) to identify candidate markers of drug sensitivity and resistance.
as §2

[9] = system: H865 xenografts; experiment: Flank xenograft efficacy study, SLFN11 low; format: in vivo, mouse; conditions: H865, lower SLFN11; 0.1 mg/kg i.v. once per week
Experimental: as §3, §4, §5

[10] = clinical testing; cited from earlier work
[11] = system: DMS79 and H209 cells; experiment: Proliferation assay after siRNA knockdown of SLFN11; format: cell-based, human; conditions: DMS79 and H209, versus parental and scrambled siRNA controls
Experimental: For SLFN11 gene silencing, pooled small interfering RNAs (siRNAs) targeting SLFN11 (L-016764-01-0005) or its corresponding scramble control (D-001810-10-05; GE Dharmacon) were transfected into DMS79 and H209 cells for 72 hours using Lipofectamine 2000 (Invitrogen) according to the manufacturer's protocol. The cells were then plated for 96h proliferation assays. Knock down efficiency was validated by Western blotting.

For `COc1ccc2[nH]c3c(c2c1)CCN[C@]31CS[C@@H]2c3c(OC(C)=O)c(C)c4c(c3[C@H](COC1=O)N1[C@@H]2[C@H]2c3c(cc(C)c(OC)c3O)C[C@@H]([C@@H]1O)N2C)OCO4` [lurbinectedin, Lurbinectedin], which “phospho STING and PD-L1” value [1] is on record?
The value was “only observed in cell lines from the SCLC-P and SCLC-I subtypes”.

What about the “protein levels of cGAS” value ([1]; versus DMSO, all cell lines tested) of the same compound?
Its value is “induced an increase”.

What about the “overall response by investigator assessment” value [2] of the same compound?
The value was 35.2%.

And the pIC50 ([3]; read-out: IC50 range)?
Its pIC50 is 8.74 to 10.22.

What about the pIC50 ([3]; read-out: median IC50) of the same compound?
Its pIC50 is 9.34.

What about the “difference in in vitro activity between subtypes” value ([3]; SCLC-A, SCLC-N, SCLC-P, SCLC-I) of the same compound?
The value was “no significant difference”.

What about the “fold change (FC) of IC50 between SLFN11 high and low cell lines” value ([3]; bimodal separation of SLFN11 by RPPA) of the same compound?
Its value is 3.26 and 3.2.

And the “markers of DNA damage (TH2AX, ChK1, RPA32)” value [4]?
The value was “increased markers of DNA damage”.

And the “markers of replication stress phospho CHK1(S345) and phospho RPA32(S4/S8)” value [5]?
Its value is “increases in markers of replication stress”.

And the “tumor growth versus vehicle” value [6]?
The value was “significantly reduced tumor growth”.

What about the “change in SLFN11 levels” value ([7]; DMS-79) of the same compound?
Its value is “minimal decrease”.

What about the “change in SLFN11 levels” value ([7]; H1048) of the same compound?
Its value is “undetectable level”.

And the pIC50 ([8]; read-out: IC50 range)?
Its pIC50 is 8.74 to 10.10.

What about the pIC50 ([8]; read-out: median IC50) of the same compound?
Its pIC50 is 9.28.

And the “IC50 of SLFN11-high versus SLFN11-low SCLC cells” value ([8]; p=0.0035 by t-test)?
Its value is “lower IC50 than SLFN11-low cells”.

What about the “subtype specific difference in sensitivity” value ([8]; subtypes A, N, P and I) of the same compound?
The value was “no subtype specific difference”.

What about the sensitivity of xenografts [9] of the same compound?
Its sensitivity of xenografts is “significantly less sensitive”.

What about the peak plasma concentration [10] of the same compound?
Its peak plasma concentration is 148.2-153.8 ng/mL and 188.8-196.0 nM.

And the “sensitivity after SLFN11 knockdown” value [11]?
The value was “reduced sensitivity”.
